ChEMBL document CHEMBL1781986, “Structure-activity relationships of pyrrole based S-nitrosoglutathione reductase inhibitors: pyrrole regioisomers and propionic acid replacement” (Bioorg Med Chem Lett, 2011)
Calls of active or inactive are those of the source. No cut-off for these calls is given here.

Experiments:
[1] = target: T1, Vasoactive intestinal polypeptide receptor 1 (Homo sapiens) (UniProt P32241); experiment: Inhibition of human recombinant VPAC1 receptor at 10 uM by radioligand binding assay
T1 sequence (whole entry): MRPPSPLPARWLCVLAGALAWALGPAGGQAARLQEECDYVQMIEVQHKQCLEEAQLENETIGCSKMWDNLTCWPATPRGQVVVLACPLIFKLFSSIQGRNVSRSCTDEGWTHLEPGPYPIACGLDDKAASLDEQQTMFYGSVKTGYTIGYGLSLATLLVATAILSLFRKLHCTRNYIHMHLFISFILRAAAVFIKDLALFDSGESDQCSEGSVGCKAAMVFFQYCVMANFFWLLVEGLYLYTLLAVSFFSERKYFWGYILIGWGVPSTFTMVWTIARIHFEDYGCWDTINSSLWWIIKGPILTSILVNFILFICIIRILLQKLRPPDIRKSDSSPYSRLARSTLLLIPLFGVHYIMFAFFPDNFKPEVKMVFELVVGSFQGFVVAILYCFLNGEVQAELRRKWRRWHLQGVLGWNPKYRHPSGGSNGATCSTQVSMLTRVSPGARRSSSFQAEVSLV

[2] = target: T2, Muscarinic acetylcholine receptor M2 (Homo sapiens) (UniProt P08172); experiment: Inhibition of human recombinant M2 receptor at 10 uM by radioligand binding assay
T2 sequence (whole entry): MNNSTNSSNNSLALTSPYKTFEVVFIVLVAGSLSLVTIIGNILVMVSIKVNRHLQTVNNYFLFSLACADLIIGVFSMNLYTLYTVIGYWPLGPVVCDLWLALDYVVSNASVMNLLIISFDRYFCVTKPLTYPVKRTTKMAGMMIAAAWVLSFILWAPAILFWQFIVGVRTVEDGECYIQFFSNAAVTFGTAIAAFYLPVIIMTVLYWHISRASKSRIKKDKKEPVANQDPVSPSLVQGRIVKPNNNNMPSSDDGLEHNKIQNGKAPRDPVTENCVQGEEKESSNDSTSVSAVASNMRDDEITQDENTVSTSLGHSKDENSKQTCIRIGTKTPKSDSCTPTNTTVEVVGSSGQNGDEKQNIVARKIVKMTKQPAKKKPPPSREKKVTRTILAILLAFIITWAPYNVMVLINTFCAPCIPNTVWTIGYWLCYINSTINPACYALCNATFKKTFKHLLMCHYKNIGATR

[3] = target: Mu-type opioid receptor (Homo sapiens) (UniProt P35372); experiment: Inhibition of human recombinant MOP receptor at 10 uM by radioligand binding assay
Mu-type opioid receptor (Homo sapiens), sequence (P35372 whole entry): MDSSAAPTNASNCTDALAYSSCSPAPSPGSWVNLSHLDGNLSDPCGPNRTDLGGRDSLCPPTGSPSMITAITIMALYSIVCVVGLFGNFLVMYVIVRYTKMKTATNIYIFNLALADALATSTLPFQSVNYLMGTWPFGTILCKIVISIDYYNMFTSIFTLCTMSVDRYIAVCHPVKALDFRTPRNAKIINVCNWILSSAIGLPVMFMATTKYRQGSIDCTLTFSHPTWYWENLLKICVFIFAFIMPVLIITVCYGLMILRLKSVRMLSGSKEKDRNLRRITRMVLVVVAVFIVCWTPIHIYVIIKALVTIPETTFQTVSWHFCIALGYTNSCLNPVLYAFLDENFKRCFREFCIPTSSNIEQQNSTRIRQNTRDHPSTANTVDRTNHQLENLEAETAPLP

[4] = target: T3, Adenosine receptor A1 (Homo sapiens) (UniProt P30542); experiment: Inhibition of human recombinant A1 receptor at 10 uM by radioligand binding assay
T3 sequence (whole entry): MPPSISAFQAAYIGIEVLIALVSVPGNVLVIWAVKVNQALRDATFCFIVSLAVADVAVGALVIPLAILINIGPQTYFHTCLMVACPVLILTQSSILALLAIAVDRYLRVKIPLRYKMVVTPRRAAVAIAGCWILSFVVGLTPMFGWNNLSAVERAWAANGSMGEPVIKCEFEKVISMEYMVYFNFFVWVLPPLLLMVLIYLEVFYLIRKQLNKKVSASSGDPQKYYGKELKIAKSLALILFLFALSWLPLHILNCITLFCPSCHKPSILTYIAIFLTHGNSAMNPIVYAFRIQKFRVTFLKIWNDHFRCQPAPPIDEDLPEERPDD

[5] = target: Beta-2 adrenergic receptor (Homo sapiens) (UniProt P07550); experiment: Inhibition of human recombinant beta2 receptor at 10 uM by radioligand binding assay
Beta-2 adrenergic receptor (Homo sapiens), sequence (P07550 whole entry, looked up): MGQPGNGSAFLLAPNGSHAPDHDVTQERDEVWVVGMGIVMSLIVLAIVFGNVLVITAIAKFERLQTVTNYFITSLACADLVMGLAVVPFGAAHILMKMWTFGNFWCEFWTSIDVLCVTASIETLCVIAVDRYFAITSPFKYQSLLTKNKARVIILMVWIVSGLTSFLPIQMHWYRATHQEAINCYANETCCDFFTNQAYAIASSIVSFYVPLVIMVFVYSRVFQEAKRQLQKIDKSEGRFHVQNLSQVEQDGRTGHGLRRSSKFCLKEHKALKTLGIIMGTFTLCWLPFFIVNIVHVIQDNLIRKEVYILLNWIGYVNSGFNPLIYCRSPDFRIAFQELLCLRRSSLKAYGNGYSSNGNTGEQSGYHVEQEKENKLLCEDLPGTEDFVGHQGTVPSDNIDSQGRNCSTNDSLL

[6] = target: Small conductance calcium-activated potassium channel protein 1 (Homo sapiens) (UniProt Q92952); experiment: Inhibition of human recombinant Skca channel at 10 uM by radioligand binding assay
Small conductance calcium-activated potassium channel protein 1 (Homo sapiens), sequence (Q92952 whole entry): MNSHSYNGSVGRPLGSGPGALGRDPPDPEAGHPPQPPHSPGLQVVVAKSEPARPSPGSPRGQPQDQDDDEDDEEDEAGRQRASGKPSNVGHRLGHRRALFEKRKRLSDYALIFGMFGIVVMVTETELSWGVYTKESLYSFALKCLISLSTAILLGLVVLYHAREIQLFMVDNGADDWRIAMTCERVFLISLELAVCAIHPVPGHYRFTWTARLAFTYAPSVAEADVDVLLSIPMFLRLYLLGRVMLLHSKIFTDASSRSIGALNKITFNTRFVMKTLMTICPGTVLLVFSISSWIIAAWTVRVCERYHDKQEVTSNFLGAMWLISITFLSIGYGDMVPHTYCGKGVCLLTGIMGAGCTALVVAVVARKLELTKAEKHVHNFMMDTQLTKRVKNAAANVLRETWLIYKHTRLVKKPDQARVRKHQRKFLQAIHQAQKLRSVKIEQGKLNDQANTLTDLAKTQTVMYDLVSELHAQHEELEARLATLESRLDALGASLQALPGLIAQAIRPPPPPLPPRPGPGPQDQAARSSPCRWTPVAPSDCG

[7] = target: T4, Cholecystokinin receptor type A (Homo sapiens) (UniProt P32238); experiment: Inhibition of human recombinant CCK1 receptor at 10 uM by radioligand binding assay
T4 sequence (whole entry): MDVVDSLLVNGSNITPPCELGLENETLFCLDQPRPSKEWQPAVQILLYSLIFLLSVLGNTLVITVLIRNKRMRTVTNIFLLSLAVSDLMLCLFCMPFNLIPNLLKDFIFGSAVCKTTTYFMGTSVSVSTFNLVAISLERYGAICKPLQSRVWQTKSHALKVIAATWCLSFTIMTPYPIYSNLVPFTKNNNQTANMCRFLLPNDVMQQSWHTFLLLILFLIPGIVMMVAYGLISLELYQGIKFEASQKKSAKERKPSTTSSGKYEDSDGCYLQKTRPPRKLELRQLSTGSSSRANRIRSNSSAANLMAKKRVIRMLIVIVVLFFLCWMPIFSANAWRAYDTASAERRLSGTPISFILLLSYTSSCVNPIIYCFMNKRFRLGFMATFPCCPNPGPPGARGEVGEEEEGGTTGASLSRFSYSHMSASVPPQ

[8] = species: Homo sapiens; experiment: Inhibition of human recombinant chloride channel at 10 uM by radioligand binding assay
[9] = target: T5, B2 bradykinin receptor (Homo sapiens) (UniProt P30411); experiment: Inhibition of human recombinant B2 bradykinin receptor at 10 uM by radioligand binding assay
T5 sequence (whole entry): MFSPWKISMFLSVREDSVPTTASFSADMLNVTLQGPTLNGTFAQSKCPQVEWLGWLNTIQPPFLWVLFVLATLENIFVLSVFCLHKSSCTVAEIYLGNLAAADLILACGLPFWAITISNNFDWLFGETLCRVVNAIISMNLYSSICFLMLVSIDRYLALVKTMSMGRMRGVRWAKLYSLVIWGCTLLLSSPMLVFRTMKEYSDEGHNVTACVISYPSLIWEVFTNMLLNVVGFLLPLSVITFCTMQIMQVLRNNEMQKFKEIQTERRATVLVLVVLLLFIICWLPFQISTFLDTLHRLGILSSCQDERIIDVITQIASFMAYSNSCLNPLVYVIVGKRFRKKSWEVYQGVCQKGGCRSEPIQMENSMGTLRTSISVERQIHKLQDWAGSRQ

[10] = target: Cannabinoid receptor 1 (Homo sapiens) (UniProt P21554); experiment: Inhibition of human recombinant CB1 receptor at 10 uM by radioligand binding assay
Cannabinoid receptor 1 (Homo sapiens), sequence (P21554 whole entry): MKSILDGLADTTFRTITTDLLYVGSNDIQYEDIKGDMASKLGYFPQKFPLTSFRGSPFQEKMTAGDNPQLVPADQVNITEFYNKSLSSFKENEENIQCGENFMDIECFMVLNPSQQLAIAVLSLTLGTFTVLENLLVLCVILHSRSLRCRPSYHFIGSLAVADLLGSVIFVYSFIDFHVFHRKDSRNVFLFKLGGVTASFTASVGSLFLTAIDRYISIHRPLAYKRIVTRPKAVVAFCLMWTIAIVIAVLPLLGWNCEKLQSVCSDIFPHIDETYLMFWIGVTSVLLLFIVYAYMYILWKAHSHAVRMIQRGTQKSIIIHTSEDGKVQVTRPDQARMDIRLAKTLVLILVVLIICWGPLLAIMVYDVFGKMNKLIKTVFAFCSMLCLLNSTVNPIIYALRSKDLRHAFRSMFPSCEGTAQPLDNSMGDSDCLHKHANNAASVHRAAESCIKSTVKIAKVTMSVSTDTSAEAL

[11] = target: Sodium-dependent serotonin transporter (Homo sapiens) (UniProt P31645); experiment: Inhibition of human recombinant 5HT transporter at 10 uM by radioligand binding assay
Sodium-dependent serotonin transporter (Homo sapiens), sequence (P31645 whole entry, looked up): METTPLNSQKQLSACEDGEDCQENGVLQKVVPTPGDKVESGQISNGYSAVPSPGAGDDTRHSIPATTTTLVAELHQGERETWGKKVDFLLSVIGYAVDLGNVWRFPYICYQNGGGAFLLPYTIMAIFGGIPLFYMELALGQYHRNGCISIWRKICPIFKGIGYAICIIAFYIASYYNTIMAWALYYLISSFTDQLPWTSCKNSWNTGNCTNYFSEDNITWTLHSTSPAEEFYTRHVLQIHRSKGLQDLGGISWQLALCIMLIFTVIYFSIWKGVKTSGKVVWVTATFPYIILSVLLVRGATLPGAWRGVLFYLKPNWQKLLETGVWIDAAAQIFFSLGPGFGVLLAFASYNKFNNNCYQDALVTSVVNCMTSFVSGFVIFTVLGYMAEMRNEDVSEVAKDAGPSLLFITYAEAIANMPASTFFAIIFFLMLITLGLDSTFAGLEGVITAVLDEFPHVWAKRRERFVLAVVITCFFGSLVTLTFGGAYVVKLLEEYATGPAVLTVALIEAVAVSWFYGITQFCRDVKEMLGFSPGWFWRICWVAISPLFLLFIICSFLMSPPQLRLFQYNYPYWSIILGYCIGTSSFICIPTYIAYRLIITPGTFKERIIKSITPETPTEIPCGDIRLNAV

[12] = species: Homo sapiens; experiment: Inhibition of human recombinant sst receptor at 10 uM by radioligand binding assay
[13] = target: Melatonin receptor type 1A (Homo sapiens) (UniProt P48039); experiment: Inhibition of human recombinant MT1 receptor at 10 uM by radioligand binding assay
Melatonin receptor type 1A (Homo sapiens), sequence (P48039 whole entry): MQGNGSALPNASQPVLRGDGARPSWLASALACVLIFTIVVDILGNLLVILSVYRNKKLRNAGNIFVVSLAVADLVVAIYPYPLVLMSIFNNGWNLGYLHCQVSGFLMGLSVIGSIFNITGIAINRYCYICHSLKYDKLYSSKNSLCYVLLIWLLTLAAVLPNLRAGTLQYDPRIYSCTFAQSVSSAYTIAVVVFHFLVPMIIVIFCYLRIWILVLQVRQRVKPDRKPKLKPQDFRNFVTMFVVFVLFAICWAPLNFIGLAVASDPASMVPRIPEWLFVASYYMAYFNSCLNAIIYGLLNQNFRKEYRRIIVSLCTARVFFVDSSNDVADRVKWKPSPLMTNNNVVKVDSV

COc1ccc(-c2ccn(-c3ccc(C(=O)O)c(O)c3)c2-c2ccc(C(N)=O)cc2C)cc1
inhibition [1]: Active | inhibition [2]: Active | inhibition [3]: Active | inhibition [4]: Active | inhibition [5]: Active | inhibition [6]: Active | inhibition [7]: Active | inhibition [8]: Active | inhibition [9]: Active | inhibition [10]: Active | inhibition [11]: Active | inhibition [12]: Active | inhibition [13]: Active

Cc1cc(C(N)=O)ccc1-c1c(CCC(=O)O)ccn1-c1ccc(-n2ccnc2)cc1
inhibition [1]: inactive | inhibition [2]: inactive | inhibition [3]: inactive | inhibition [4]: inactive | inhibition [5]: inactive | inhibition [6]: inactive | inhibition [7]: inactive | inhibition [8]: inactive | inhibition [9]: inactive | inhibition [10]: inactive | inhibition [11]: inactive | inhibition [12]: inactive | inhibition [13]: inactive

COc1ccc(-c2ccn(-c3ccc(O)c([N+](=O)[O-])c3)c2-c2ccc(C(N)=O)cc2C)cc1
inhibition [1]: Active | inhibition [2]: Active | inhibition [3]: Active | inhibition [4]: Active | inhibition [5]: Active | inhibition [6]: Active | inhibition [7]: Active | inhibition [8]: Active | inhibition [9]: Active | inhibition [10]: Active | inhibition [11]: Active | inhibition [12]: Active | inhibition [13]: Active

Cc1cc(C(N)=O)ccc1-c1c(-c2ccc(-n3ccnc3)cc2)ccn1CCC(=O)O
inhibition [1]: inactive | inhibition [2]: inactive | inhibition [3]: inactive | inhibition [4]: inactive | inhibition [5]: inactive | inhibition [6]: inactive | inhibition [7]: inactive | inhibition [8]: inactive | inhibition [9]: inactive | inhibition [10]: inactive | inhibition [11]: inactive | inhibition [12]: inactive | inhibition [13]: inactive

Cc1cc(C(N)=O)ccc1-n1c(CCC(=O)O)ccc1-c1ccc(-n2ccnc2)cc1 [N6022]
inhibition [1]: inactive | inhibition [2]: inactive | inhibition [3]: inactive | inhibition [4]: inactive | inhibition [5]: inactive | inhibition [6]: inactive | inhibition [7]: inactive | inhibition [8]: inactive | inhibition [9]: inactive | inhibition [10]: inactive | inhibition [11]: inactive | inhibition [12]: inactive | inhibition [13]: inactive
